In brackets after ≈: the same amount, converted by molar mass. Each block holds one compound with its values, some of them ahead of it.
Tests used:
[1] = Solubility in gastrointestinal fluids; format: physicochemical
[2] = Solubility by shake flask method (OECD guideline No. 105) in purified water; details: 25° C.
Experimental: Solubility measurements were carried out with the shake flask method according to the OECD guideline at 25° C.

[3] = Relative stability of the polymorphic forms; format: physicochemical; details: form α versus form β
[4] = Stability at ambient conditions; format: physicochemical

solubility in gastrointestinal fluids (in words) [1]: low solubility
Solubility [2]: 5.9 ng/mL (≈ 0.0191 µM)
SMILES: O[C@H]1CC[C@H](Nc2nc(-c3ccccc3)nc3[nH]ccc23)CC1 [Base, 4-(4-trans-hydroxy-cyclohexyl)amino-2-phenyl-7H-pyrrolo[2,3d]pyrimidine]

polymorphic stability (in words) [3]: metastable with respect to form β
SMILES: CS(=O)(=O)O.OC1CCC(Nc2nc(-c3ccccc3)nc3[nH]ccc23)CC1 (stereo not drawn) [Polymorph α, 4-(4-trans-hydroxy-cyclohexyl)amino-2-phenyl-7H-pyrrolo[2,3d]pyrimidine mesylate]

polymorphic stability (in words) [3]: stable form
SMILES: CS(=O)(=O)O.OC1CCC(Nc2nc(-c3ccccc3)nc3[nH]ccc23)CC1 (stereo not drawn) [Polymorph β, 4-(4-trans-hydroxy-cyclohexyl)amino-2-phenyl-7H-pyrrolo[2,3d]pyrimidine mesylate]

stability at ambient conditions (in words) [4]: very stable
SMILES: CS(=O)(=O)O.OC1CCC(Nc2nc(-c3ccccc3)nc3[nH]ccc23)CC1 (stereo not drawn) [mesylate salt, 4-(4-trans-hydroxy-cyclohexyl)amino-2-phenyl-7H-pyrrolo[2,3d]-pyrimidine mesylate]

Reference: patent US7381729B2, “4-(4-trans-hydroxycyclohexyl)amino-2-phenyl-7H-pyrrolo [2,3D] pyrimidine hydrogen mesylate, its polymorphic forms, and methods for making same” (Solvay Pharmaceuticals B.V., priority 2003, dated 2008)
